These results are taken from PubChem BioAssay (NCI).

One may read the GI50 as the concentration that inhibits growth by half. The term TGI denotes the concentration at which net growth stops. A high value points to lower sensitivity of the cells.

Test systems include EKVX NSCLC; SK-MEL-5 melanoma; M14 melanoma; CCRF-CEM leukemia; UACC-257 melanoma; OVCAR-5 ovarian; SK-OV-3 ovarian; KM12 colon; HS 578T breast; RPMI-8226 leukemia.
What all share (experiment): DTP human tumour cell line panel, 48 h

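Grown in 96-well plates, cells were treated for 48 hours with each compound at five concentrations. Insufficient inhibition: endpoint recorded as highest concentration tested. GI50 is the concentration that inhibits growth by half. The concentration for full growth arrest is given as TGI.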

Turning to `CC(=O)c1cc(C(=O)c2ccc3c(c2)Sc2ccccc2N3)c2c(C)cccn12`, the GI50 is 0.476 µM with EKVX NSCLC; 0.259 µM in the experiment with SK-MEL-5 melanoma; 0.198 µM in the experiment on M14 melanoma; 0.332 µM in the experiment on CCRF-CEM leukemia; 2.39 µM with UACC-257 melanoma; 0.63 µM with OVCAR-5 ovarian. Also, the GI50 was 0.266 µM in the experiment with SK-OV-3 ovarian, 0.307 µM with KM12 colon, 0.266 µM in the experiment on HS 578T breast and 0.412 µM with RPMI-8226 leukemia. Besides, the TGI in the experiment on EKVX NSCLC is > 100 µM; with SK-MEL-5 melanoma, 4.56 µM; in the experiment on M14 melanoma, 5.5 µM; in the experiment on CCRF-CEM leukemia it was > 100 µM; in the experiment with UACC-257 melanoma, > 100 µM; in the experiment on OVCAR-5 ovarian, > 100 µM. Besides, the TGI is 10.5 µM in the experiment with SK-OV-3 ovarian, > 100 µM with KM12 colon, > 36.3 µM in the experiment on HS 578T breast and 83.4 µM in the experiment with RPMI-8226 leukemia.

As for `Cn1c(=S)c2[nH]c(SCCN3C(=O)c4ccccc4C3=O)nc2n(C)c1=O`, the concentration for total growth inhibition (TGI) with EKVX NSCLC, in the experiment on SK-MEL-5 melanoma, in the experiment on M14 melanoma, in the experiment on CCRF-CEM leukemia, with UACC-257 melanoma and in the experiment on OVCAR-5 ovarian was > 100 µM each time. Besides, the TGI in the experiment with SK-OV-3 ovarian, in the experiment with KM12 colon, with HS 578T breast and with RPMI-8226 leukemia was > 100 µM throughout.

On to `CN1CCN(Cc2ccc3c(NNC(=O)c4ccccc4)nc4cc(F)ccc4n23)CC1`, for which the GI50 in the experiment on EKVX NSCLC was 0.17 µM; with SK-MEL-5 melanoma, 0.577 µM; in the experiment on M14 melanoma it was 0.252 µM; in the experiment with CCRF-CEM leukemia it was 0.225 µM; in the experiment with UACC-257 melanoma, 0.848 µM; in the experiment with OVCAR-5 ovarian, 0.735 µM. In addition, the GI50 in the experiment with SK-OV-3 ovarian was 0.371 µM; with KM12 colon, 0.42 µM; with HS 578T breast it was 5.73 µM; with RPMI-8226 leukemia it was 0.574 µM. In addition, the TGI was 16 µM in the experiment with EKVX NSCLC; 3.28 µM in the experiment with SK-MEL-5 melanoma; 12.9 µM with M14 melanoma; > 100 µM in the experiment with CCRF-CEM leukemia; 12.5 µM with UACC-257 melanoma; 70.2 µM with OVCAR-5 ovarian. The total growth inhibition concentration (TGI) in the experiment with SK-OV-3 ovarian is > 100 µM; with KM12 colon, > 96.4 µM; in the experiment with HS 578T breast, > 100 µM; with RPMI-8226 leukemia it was 18.1 µM.

`O=c1oc2ccc(-c3ccc(F)cc3F)cc2c(=O)n1-c1ccc(Cl)c(C(F)(F)F)c1`: the GI50 with EKVX NSCLC was 2.18 µM; in the experiment on SK-MEL-5 melanoma, 1.6 µM; in the experiment with M14 melanoma, 2.45 µM; with CCRF-CEM leukemia it was 2.63 µM; with UACC-257 melanoma, 1.85 µM; with OVCAR-5 ovarian it was 4.31 µM. For the same molecule, the GI50 is 2.01 µM in the experiment on SK-OV-3 ovarian, 2.36 µM in the experiment on KM12 colon, 2.42 µM with HS 578T breast and 2.1 µM in the experiment with RPMI-8226 leukemia. The TGI in the experiment with EKVX NSCLC was 7.54 µM; in the experiment on SK-MEL-5 melanoma it was 3.05 µM; with M14 melanoma, 6.79 µM; with CCRF-CEM leukemia, 8.75 µM; with UACC-257 melanoma it was 6.44 µM; with OVCAR-5 ovarian, > 100 µM. Moreover, the TGI in the experiment with SK-OV-3 ovarian worked out at 5.17 µM; in the experiment with KM12 colon it was 5.85 µM; in the experiment with HS 578T breast, 8.16 µM; in the experiment on RPMI-8226 leukemia it was 5.9 µM.

On to `Nc1ccccc1C#C/C=C\C#Cc1c(F)c(F)c(F)c(F)c1F`, for which the GI50 was 29.7 µM with EKVX NSCLC; 20 µM with SK-MEL-5 melanoma; 15 µM in the experiment on M14 melanoma; 0.385 µM in the experiment with CCRF-CEM leukemia; 17.9 µM in the experiment with UACC-257 melanoma; 53.4 µM with OVCAR-5 ovarian. Also, the GI50 is 33.9 µM with SK-OV-3 ovarian, 16.2 µM with KM12 colon, 32.7 µM in the experiment on HS 578T breast and 1.25 µM with RPMI-8226 leukemia. The TGI with EKVX NSCLC is 99.1 µM; in the experiment on SK-MEL-5 melanoma, 45 µM; in the experiment on M14 melanoma it was 29.4 µM; in the experiment on CCRF-CEM leukemia, 14.2 µM; with UACC-257 melanoma, 38.6 µM; in the experiment on OVCAR-5 ovarian, > 100 µM. The TGI was > 100 µM with SK-OV-3 ovarian, 37.7 µM with KM12 colon, > 100 µM in the experiment on HS 578T breast and 21.7 µM in the experiment on RPMI-8226 leukemia.

Turning to `Cc1ccc(-c2nc(-c3cn(C)c4ncccc34)cs2)cc1`, the GI50 in the experiment with EKVX NSCLC was 4.61 µM; in the experiment on SK-MEL-5 melanoma, 3.7 µM; in the experiment with M14 melanoma it was 2.35 µM; in the experiment with CCRF-CEM leukemia, 14.7 µM; in the experiment on UACC-257 melanoma it was 9.41 µM; in the experiment with OVCAR-5 ovarian, 7.78 µM. Besides, the GI50 in the experiment on SK-OV-3 ovarian was 6.86 µM; with KM12 colon it was 1.2 µM; with HS 578T breast it was 4.71 µM; with RPMI-8226 leukemia, 7.37 µM. Also, the TGI was 43.7 µM in the experiment on EKVX NSCLC; 14.6 µM with SK-MEL-5 melanoma; 8.18 µM in the experiment on M14 melanoma; > 80 µM in the experiment on CCRF-CEM leukemia; 28 µM with UACC-257 melanoma; 26.5 µM in the experiment with OVCAR-5 ovarian. The TGI in the experiment with SK-OV-3 ovarian was 27.5 µM; with KM12 colon, 14 µM; with HS 578T breast it was 26.6 µM; with RPMI-8226 leukemia it was > 69.8 µM.

`C[C@@H]1COCCN1c1cc(C2([S@@](C)(=N)=O)CC2)nc(-c2ccnc3[nH]ccc23)n1`: the GI50 with EKVX NSCLC is 5.78 µM; with SK-MEL-5 melanoma, 6.87 µM; in the experiment on M14 melanoma, 3.52 µM; with CCRF-CEM leukemia it was 2.55 µM; with UACC-257 melanoma, 14.6 µM; in the experiment with OVCAR-5 ovarian, 5.11 µM. In addition, the GI50 was 2.95 µM with SK-OV-3 ovarian, 5.8 µM in the experiment on KM12 colon, 3.73 µM in the experiment on HS 578T breast and 6.21 µM with RPMI-8226 leukemia. Besides, the TGI in the experiment on EKVX NSCLC is 67.4 µM; in the experiment with SK-MEL-5 melanoma, 26.4 µM; with M14 melanoma it was 26.4 µM; in the experiment with CCRF-CEM leukemia, > 42.5 µM; in the experiment on UACC-257 melanoma, > 100 µM; with OVCAR-5 ovarian it was > 100 µM. The TGI is 27.4 µM with SK-OV-3 ovarian, > 100 µM in the experiment with KM12 colon, 34.9 µM in the experiment with HS 578T breast and > 60.9 µM in the experiment with RPMI-8226 leukemia.

`Cc1cn(-c2ccc(S(C)(=O)=O)cc2)c(-c2ccc(Cl)cc2)n1`: the GI50 in the experiment with EKVX NSCLC, in the experiment with SK-MEL-5 melanoma, with M14 melanoma, with CCRF-CEM leukemia, with UACC-257 melanoma and in the experiment on OVCAR-5 ovarian was > 100 µM throughout. Moreover, the GI50 in the experiment with SK-OV-3 ovarian, in the experiment on KM12 colon, in the experiment on HS 578T breast and with RPMI-8226 leukemia was > 100 µM throughout. Besides, the TGI in the experiment with EKVX NSCLC, in the experiment on SK-MEL-5 melanoma, in the experiment with M14 melanoma, with CCRF-CEM leukemia, with UACC-257 melanoma and with OVCAR-5 ovarian was > 100 µM throughout. The concentration for total growth inhibition (TGI) in the experiment with SK-OV-3 ovarian, with KM12 colon, in the experiment on HS 578T breast and in the experiment with RPMI-8226 leukemia was > 100 µM each time.
